In this experiment the test system is CD2F1 mice, L1210 leukemia ip, survival T/C. Description: NCI In Vivo Anticancer Drug Screen. Data for tumor model L1210 Leukemia (intraperitoneal) in CD2F1 (CDF1) mice. The following applies: endpoint: mean survival time, higher = longer survival. The method, boiled down:
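In this screen, transplantable tumors were grown in mice given either the compound or its vehicle. Results were expressed as the treated measurement relative to the control measurement.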

The mark [1] stands for this setting: dose: 100.0 mg/kg/injection, schedule: Q01DX001 (ip), vehicle: saline with Tween-80.
Setting [2] is: dose: 200.0 mg/kg/injection, schedule: Q01DX001 (ip), vehicle: saline with Tween-80.
The mark [3] stands for this setting: dose: 400.0 mg/kg/injection, schedule: Q01DX001 (ip), vehicle: saline with Tween-80.
Setting [4] is: dose: 50.0 mg/kg/injection, schedule: Q01DX009 (ip), vehicle: saline with Tween-80.
Where [5] appears, read: dose: 100.0 mg/kg/injection, schedule: Q01DX009 (ip), vehicle: saline with Tween-80.
[6] abbreviates: dose: 200.0 mg/kg/injection, schedule: Q01DX009 (ip), vehicle: saline with Tween-80.
Setting [7] is: dose: 100.0 mg/kg/injection, schedule: Q04DX003 (ip), vehicle: saline with Tween-80.
The mark [8] stands for this setting: dose: 400.0 mg/kg/injection, schedule: Q01DX009 (ip), vehicle: saline with Tween-80.
The mark [9] stands for this setting: dose: 50.0 mg/kg/injection, schedule: Q04DX003 (ip), vehicle: Klucel (hydroxypropylcellulose) (HPC).
The mark [10] stands for this setting: dose: 100.0 mg/kg/injection, schedule: Q04DX003 (ip), vehicle: Klucel (hydroxypropylcellulose) (HPC).
Setting [11] is: dose: 100.0 mg/kg/injection, schedule: Q04DX002 (ip), vehicle: saline.
Where [12] appears, read: dose: 200.0 mg/kg/injection, schedule: Q04DX002 (ip), vehicle: saline.
Setting [13] is: dose: 400.0 mg/kg/injection, schedule: Q04DX002 (ip), vehicle: saline.
[14] abbreviates: dose: 100.0 mg/kg/injection, schedule: Q04DX003 (ip), vehicle: saline.
[15] abbreviates: dose: 200.0 mg/kg/injection, schedule: Q04DX003 (ip), vehicle: saline.
[16] abbreviates: dose: 400.0 mg/kg/injection, schedule: Q04DX003 (ip), vehicle: saline.
[17] abbreviates: dose: 100.0 mg/kg/injection, schedule: Q04DX002 (ip), vehicle: saline with Tween-80.
The mark [18] stands for this setting: dose: 200.0 mg/kg/injection, schedule: Q04DX002 (ip), vehicle: saline with Tween-80.
[19] abbreviates: dose: 400.0 mg/kg/injection, schedule: Q04DX002 (ip), vehicle: saline with Tween-80.
The mark [20] stands for this setting: dose: 50.0 mg/kg/injection, schedule: Q04DX002 (ip), vehicle: saline with Tween-80.
The mark [21] stands for this setting: dose: 12.5 mg/kg/injection, schedule: Q01DX009 (ip), vehicle: saline.
Setting [22] is: dose: 25.0 mg/kg/injection, schedule: Q01DX009 (ip), vehicle: saline.

From PubChem BioAssay AID256 (DTP/NCI, 2004) come the findings set out here.

Several values for one entry are separate records, joined by “and”; a condition that tells them apart may be missing. Identical values can stand only once. Toxic doses and inconclusive results are not listed.

As to `CCC(=O)O[C@H]1CC[C@H]2[C@@H]3[C@@H](C)CC4=CC(=O)CC[C@]4(C)[C@H]3CC[C@]12C`, the T/C is 91 % of control under setting [1], 94 % of control under setting [2] and 94 % of control under setting [3].

Consider `CN(C)c1ccc(/C=N/NC(=O)CNC(=O)Nc2cccc(C(F)(F)F)c2)cc1`, for which the T/C under setting [4] is 96 % of control, the T/C under setting [5] is 92 % of control and the T/C under setting [6] was 88 % of control.

In the case of `CC[NH-].[Cl][Pt+2][Cl].[NH-]C1CC1`, the T/C (dose: 3.13 mg/kg/injection, schedule: Q04DX003 (ip), vehicle: distilled water + Tween-80) is 116 % of control.

On to `C=CCNC(=O)c1ccc[n+](CC(=O)Nc2ccccc2)c1`, for which the T/C under setting [7] is 103 % of control.

`CN(C)c1ccc(N=Nc2ccc([As](=O)(O)O)cc2)cc1`: the T/C by setting is: (dose: 6.25 mg/kg/injection, schedule: Q01DX009 (ip), vehicle: saline with Tween-80) 91 % of control; (dose: 12.5 mg/kg/injection, schedule: Q01DX001 (ip), vehicle: saline with Tween-80) 110 % of control; (dose: 12.5 mg/kg/injection, schedule: Q01DX009 (ip), vehicle: saline with Tween-80) 89 % of control.

On to `O=Cc1ccc(/C=C2\C=Cc3ccccc32)cc1`, for which the T/C under setting [5] was 101 % of control, the T/C under setting [6] is 94 % of control and the T/C under setting [8] was 103 % of control.

Take `CC(C)NC(=O)CCCCN(C(=O)OCc1ccccc1)N(C)C(=O)OCc1ccccc1`: the T/C was 100 % of control under setting [9]; 91 % of control under setting [10]; 106 % of control (dose: 200.0 mg/kg/injection, schedule: Q04DX003 (ip), vehicle: Klucel (hydroxypropylcellulose) (HPC)); 95 % of control (dose: 400.0 mg/kg/injection, schedule: Q04DX003 (ip), vehicle: Klucel (hydroxypropylcellulose) (HPC)).

For `CN1C2CCC1CC(O)C2` (stereo unspecified), the T/C under setting [11] is 109 % of control, the T/C under setting [12] was 109 % of control and the T/C under setting [13] was 97 % of control.

For the molecule `CN(C)CC(C)(C)C(=O)c1ccccc1`, under setting [11], the T/C is 93 % of control.

In the case of `COc1cc(OC)c(NC(=O)Nc2cccc(SC)c2)cc1Cl`, the T/C reads like this: under setting [4], 92 % of control; under setting [5], 88 % of control.

As for `Cc1cccc[n+]1CCCS(=O)(=O)[O-]`, the T/C was 104 % of control under setting [14], 102 % of control under setting [15] and 101 % of control under setting [16].

Turning to `C/C=C\c1ccc(OCCOC(=O)Nc2ccc(C)cc2C)c(OC)c1`, the T/C runs as follows: under setting [4], 104 % of control; under setting [5], 96 % of control; under setting [6], 93 % of control.

With `CCOCCNc1ccc([N+](=O)[O-])cc1[N+](=O)[O-]`, the T/C is, setting by setting: under setting [17], 91 % of control; under setting [18], 91 % of control; under setting [19], 98 % of control.

Regarding `CCC12C=CC(OC)(CC1)C(C#N)C2` (stereo unspecified), the T/C by setting is: under setting [20], 103 % of control; under setting [17], 100 % of control; under setting [18], 91 % of control.

With `N=[N+]=CC(=O)OCC(N)C(=O)O` (stereo unspecified), the T/C (dose: 1.0 mg/kg/injection, schedule: Q03HX016 (ip), vehicle: saline) is 168 % of control; the T/C (dose: 2.0 mg/kg/injection, schedule: Q03HX016 (ip), vehicle: saline) was 168 % of control; the T/C (dose: 2.0 mg/kg/injection, schedule: Q03HX024 (ip), vehicle: saline) is 153 % of control and 163 % of control; the T/C (dose: 4.0 mg/kg/injection, schedule: Q03HX016 (ip), vehicle: saline) was 182 % of control; the T/C (dose: 4.0 mg/kg/injection, schedule: Q03HX024 (ip), vehicle: saline) was 171 % of control and 174 % of control; the T/C (dose: 8.0 mg/kg/injection, schedule: Q03HX016 (ip), vehicle: saline) was 115 % of control. Besides, the T/C reads like this: (dose: 8.0 mg/kg/injection, schedule: Q03HX024 (ip), vehicle: saline) 113 % of control and 115 % of control; under setting [21], 167 % of control; (dose: 25.0 mg/kg/injection, schedule: Q01DX007 (ip), vehicle: saline) 122 % of control; under setting [22], 100 % of control; (dose: 50.0 mg/kg/injection, schedule: Q01DX007 (ip), vehicle: saline) 96 % of control; (dose: 50.0 mg/kg/injection, schedule: Q03DX003 (ip), vehicle: saline) 151 % of control.

Consider `C[N+](C)(CC(=O)O)c1ccccc1`, for which the T/C was 98 % of control under setting [14], 96 % of control under setting [15] and 108 % of control under setting [16].

As to `CCOc1ccc(/C=N/NC(=O)c2ccccc2NC(=O)C2CC2)cc1OC`, the T/C is 98 % of control under setting [1], 94 % of control under setting [2] and 94 % of control under setting [3].

For the molecule `Cc1cc(C)c2nc(N)sc2c1`, the T/C runs as follows: (dose: 25.0 mg/kg/injection, schedule: Q04DX002 (ip), vehicle: saline with Tween-80) 96 % of control; under setting [20], 93 % of control; under setting [17], 93 % of control.

In the case of `C[N+]12CCN(CC1)CC2`, the T/C runs as follows: under setting [14], 102 % of control; under setting [15], 104 % of control; under setting [16], 104 % of control.

For the molecule `Cn1c(Cl)nc2c(Cl)nc(Cl)nc21`, the T/C is, setting by setting: under setting [9], 100 % of control; under setting [10], 104 % of control.

Turning to `Cc1nc2ccccc2nc1CBr`, the T/C (dose: 12.5 mg/kg/injection, schedule: Q01DX009 (ip), vehicle: acetone) was 110 % of control.

As for `O=C(O)C(F)(F)F.O=C(O)C(F)(F)F.O=C(O)C(F)(F)F.O=C(O)C(F)(F)F.[Rh].[Rh]`, the T/C runs as follows: under setting [21], 107 % of control; under setting [22], 115 % of control; (dose: 50.0 mg/kg/injection, schedule: Q01DX009 (ip), vehicle: saline) 118 % of control; (dose: 100.0 mg/kg/injection, schedule: Q01DX009 (ip), vehicle: saline) 107 % of control.

With `CC(=O)CCC(=O)OCc1ccccc1`, the T/C (dose: 25.0 mg/kg/injection, schedule: Q01DX009 (ip), vehicle: saline with Tween-80) was 102 % of control; the T/C under setting [4] was 96 % of control; the T/C under setting [5] is 108 % of control; the T/C under setting [6] is 101 % of control; the T/C under setting [8] was 98 % of control.

Turning to `CCCc1cc(=O)[nH]c(SCC(=O)O)n1`, the T/C is 98 % of control under setting [17], 98 % of control under setting [18] and 92 % of control under setting [19].

Take `CC(=O)OCC1OC(n2cnc(N)nc2=O)C(OC(C)=O)C1OC(C)=O` (stereo unspecified): the T/C is 121 % of control (dose: 1.56 mg/kg/injection, schedule: Q01DX009 (ip), vehicle: saline); 158 % of control (dose: 3.12 mg/kg/injection, schedule: Q01DX009 (ip), vehicle: saline); 161 % of control (dose: 6.25 mg/kg/injection, schedule: Q01DX009 (ip), vehicle: saline); 169 % of control under setting [21]; 110 % of control and 111 % of control under setting [22].

In the case of `Nc1cc(=O)[nH]c(=S)n1-c1ccccn1`, the T/C runs as follows: under setting [14], 101 % of control; under setting [15], 95 % of control; under setting [16], 97 % of control.

Turning to `CCOC(=O)C(C)S(=O)(=O)O` (stereo unspecified), the T/C was 91 % of control under setting [11], 100 % of control under setting [12] and 100 % of control under setting [13].

Turning to `CCCn1c(O)c(C=N)c(=O)[nH]c1=O`, the T/C reads like this: under setting [5], 101 % of control; under setting [7], 91 % of control; under setting [6], 111 % of control; (dose: 200.0 mg/kg/injection, schedule: Q04DX003 (ip), vehicle: saline with Tween-80) 92 % of control; (dose: 400.0 mg/kg/injection, schedule: Q04DX003 (ip), vehicle: saline with Tween-80) 94 % of control.

In the case of `C1CCC(CCCC(CCCC2CCCCC2)CCCC2CCCCC2)CC1`, the T/C by setting is: under setting [1], 94 % of control; under setting [2], 91 % of control; under setting [3], 88 % of control.

On to `C=CC[n+]1ccccc1Cc1ccccc1`, for which the T/C reads like this: (dose: 25.0 mg/kg/injection, schedule: Q01DX001 (ip), vehicle: saline) 98 % of control; (dose: 50.0 mg/kg/injection, schedule: Q01DX001 (ip), vehicle: saline) 95 % of control.
